pIC50: −log10 of the molar value.

The assay has as its target T1, USP25 (USP25-His6, Boston Biochem E-546) (Homo sapiens, UniProt Q9UHP3).
T1 construct: His6; purchased Boston Biochem E-546
T1 sequence (Q9UHP3 1-1055): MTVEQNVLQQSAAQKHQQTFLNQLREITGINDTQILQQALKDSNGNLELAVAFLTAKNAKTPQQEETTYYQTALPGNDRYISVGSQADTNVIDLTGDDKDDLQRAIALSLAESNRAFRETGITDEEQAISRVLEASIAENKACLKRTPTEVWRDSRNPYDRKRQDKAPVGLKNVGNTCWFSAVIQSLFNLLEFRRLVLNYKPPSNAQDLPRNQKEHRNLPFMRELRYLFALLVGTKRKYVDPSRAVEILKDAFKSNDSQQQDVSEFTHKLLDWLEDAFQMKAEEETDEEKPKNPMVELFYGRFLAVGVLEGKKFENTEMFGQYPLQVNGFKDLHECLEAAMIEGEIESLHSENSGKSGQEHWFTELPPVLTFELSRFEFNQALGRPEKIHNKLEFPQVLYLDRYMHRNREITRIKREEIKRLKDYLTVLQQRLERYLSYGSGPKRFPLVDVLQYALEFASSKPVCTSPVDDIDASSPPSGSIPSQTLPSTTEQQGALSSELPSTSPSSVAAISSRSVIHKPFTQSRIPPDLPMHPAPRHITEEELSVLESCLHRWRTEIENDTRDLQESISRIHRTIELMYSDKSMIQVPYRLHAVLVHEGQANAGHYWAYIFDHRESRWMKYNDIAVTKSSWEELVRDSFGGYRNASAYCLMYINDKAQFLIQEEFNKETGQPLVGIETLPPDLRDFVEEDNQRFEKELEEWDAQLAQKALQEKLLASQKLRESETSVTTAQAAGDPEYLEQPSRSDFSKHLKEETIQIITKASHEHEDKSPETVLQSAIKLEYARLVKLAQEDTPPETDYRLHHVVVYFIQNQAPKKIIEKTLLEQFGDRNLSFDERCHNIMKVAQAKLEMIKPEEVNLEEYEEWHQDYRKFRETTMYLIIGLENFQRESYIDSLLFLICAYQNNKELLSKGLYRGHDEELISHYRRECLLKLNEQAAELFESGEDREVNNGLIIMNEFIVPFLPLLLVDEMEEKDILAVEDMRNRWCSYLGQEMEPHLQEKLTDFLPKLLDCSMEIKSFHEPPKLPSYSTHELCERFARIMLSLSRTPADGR
Kind of assay: Ubiquitin-Rhodamine 110 Assay for USP25 Activity, Example A-2. The conditions noted are these: Ubiquitin-Rhodamine 110 assay, Example A-2; read-out: USP25 A-2 IC50 range. In kind it is biochemical. Put shortly: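 Fluorescence (ex 485, em 535 nm) of cleaved ubiquitin-rhodamine 110 (25 nM, below Km) gave IC50 via 4-parameter logistic fit. Reaction: 45 min, room temperature, citric acid stop, after 30 min compound preincubation with 75 pM USP25-His6 in 20 mM Tris pH 8.0, 3 mM BME, 0.03% BGG, 0.01% Triton X-100; top dose 25 μM.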
Consider `CO[C@H]1CN(c2ccc3c(c2)CC[C@H](NC(=O)c2cnc4c(c2)[C@@H]2C[C@@H]2CN4)C3)C[C@@H]1N` [Example 189, (6aS,7aR)-N-[(2S)-6-[(3S,4S)-3-amino-4-methoxypyrrolidin-1-yl]-1,2,3,4-tetrahydronaphthalen-2-yl]-5H,6H,6aH,7H,7aH-cyclopropa[c]1,8-naphthyridine-2-carboxamide], for which the pIC50 is < 5.70.

In the case of `Cc1ccc2c(N)c(C(=O)N[C@H]3COc4cc(N5C[C@H]6NCCC(F)(F)[C@H]6C5)ccc4C3)sc2n1` [Example 238, N-[(3R)-7-[(4aS,7aS)-4,4-difluoro-octahydro-1H-pyrrolo[3,4-b]pyridin-6-yl]-3,4-dihydro-2H-1-benzopyran-3-yl]-3-amino-6-methylthieno[2,3-b]pyridine-2-carboxamide], the negative logarithm of the IC50 (pIC50) was 5.70 to 6.70.

For the compound `Cc1ccc2c(N)c(C(=O)N[C@H]3COc4cc(N5C[C@H](N)C6(COC6)C5)ccc4C3)sc2n1` [Example 258, 3-amino-N-[(3R)-7-[(8R)-8-amino-2-oxa-6-azaspiro[3.4]octan-6-yl]-3,4-dihydro-2H-1-benzopyran-3-yl]-6-methylthieno[2,3-b]pyridine-2-carboxamide], the pIC50 is 5.70 to 6.70.

Regarding `Cc1ccc2c(N)c(C(=O)N[C@@H]3Cc4ccc(N5CCNCC5)nc4[C@H](C)C3)sc2n1` [Example 207, 3-amino-6-methyl-N-[(6S,8R)-8-methyl-2-(piperazin-1-yl)-5,6,7,8-tetrahydroquinolin-6-yl]thieno[2,3-b]pyridine-2-carboxamide], the negative-log IC50 (pIC50) was < 5.70.

`Cc1ccc2c(N)c(C(=O)N[C@H]3COc4cc(N5CC6CCC[C@]6(N)C5)ccc4C3)sc2n1` (stereo partly drawn) [Example 249, N-[(3R)-7-[(3aR)-3a-amino-octahydrocyclopenta[c]pyrrol-2-yl]-3,4-dihydro-2H-1-benzopyran-3-yl]-3-amino-6-methylthieno[2,3-b]pyridine-2-carboxamide]: the negative logarithm of the IC50 (pIC50) was 6.70 to 7.30.

In the case of `CO[C@]1(C)CN(c2ccc3c(n2)CC[C@H](NC(=O)c2sc4nc(C)ccc4c2N)C3)C[C@H]1N` [Example 211, 3-amino-N-[(6S)-2-[(3R,4R)-4-amino-3-methoxy-3-methylpyrrolidin-1-yl]-5,6,7,8-tetrahydroquinolin-6-yl]-6-methylthieno[2,3-b]pyridine-2-carboxamide], the pIC50 was < 5.70.

Turning to `CO[C@H]1CN(c2cc3c(cc2C#N)C[C@@H](NC(=O)c2sc4nc(C)ccc4c2N)CO3)C[C@@H]1N` [Example 177, 3-amino-N-[(3R)-7-[(3S,4S)-3-amino-4-methoxypyrrolidin-1-yl]-6-cyano-3-4-dihydro-2H-1-benzopyran-3-yl]-6-methylthieno[2,3-b]pyridine-2-carboxamide], the negative logarithm of the IC50 (pIC50) was 6.70 to 7.30.

Regarding `O=C(N[C@@H]1CCc2cc(N3CC4CCC(C3)N4)cc(F)c2C1)c1cnc2c(c1)[C@@H]1C[C@@H]1CN2` [Example 193, (6aS,7aR)-N-[(2R)-6-{3,8-diazabicyclo[3.2.1]octan-3-yl}-8-fluoro-1,2,3,4-tetrahydronaphthalen-2-yl]-5H,6H,6aH,7H,7aH-cyclopropa[c]1,8-naphthyridine-2-carboxamide], the pIC50 was < 5.70.

As to `Cc1ccc2c(N)c(C(=O)N[C@H]3Cc4ccc(N5CCNCC5)nc4[C@@H](C)C3)sc2n1` [Example 206, 3-amino-6-methyl-N-[(6R,8S)-8-methyl-2-(piperazin-1-yl)-5,6,7,8-tetrahydroquinolin-6-yl]thieno[2,3-b]pyridine-2-carboxamide], the pIC50 is < 5.70.

`CO[C@@H]1CN(c2ccc3c(n2)CC[C@H](NC(=O)c2sc4nc(C)ccc4c2N)C3)C[C@@]1(C)N` [Example 240, 3-amino-N-[(6S)-2-[(3R,4R)-3-amino-4-methoxy-3-methylpyrrolidin-1-yl]-5,6,7,8-tetrahydroquinolin-6-yl]-6-methylthieno[2,3-b]pyridine-2-carboxamide]: the pIC50 was < 5.70.

In the case of `O=C(N[C@H]1CCc2cc(N3CC4CCC(C3)N4)cc(F)c2C1)c1cnc2c(c1)[C@H]1C[C@H]1CN2` [Example 192, (6aR,7aS)-N-[(2S)-6-{3,8-diazabicyclo[3.2.1]octan-3-yl}-8-fluoro-1,2,3,4-tetrahydronaphthalen-2-yl]-5H,6H,6aH,7H,7aH-cyclopropa[c]1,8-naphthyridine-2-carboxamide], the pIC50 is 6.70 to 7.30.

Regarding `CO[C@H]1CN(c2ccc3c(c2C#N)CC[C@H](NC(=O)c2sc4nc(C)ccc4c2N)C3)C[C@@H]1N` [Example 178, 3-amino-N-[(2S)-6-[(3S,4S)-3-amino-4-methoxypyrrolidin-1-yl]-5-cyano-1,2,3,4-tetrahydronaphthalen-2-yl]-6-methylthieno[2,3-b]pyridine-2-carboxamide], the negative-log IC50 (pIC50) is 5.70 to 6.70.

For `Cc1ccc2c(N)c(C(=O)N[C@H]3COc4cc(N5CC[C@@H]6CNC[C@@H]65)cc(F)c4C3)sc2n1` [Example 221, N-[(3R)-7-[(3aR,6aR)-octahydropyrrolo[2,3-c]pyrrol-1-yl]-5-fluoro-3,4-dihydro-2H-1-benzopyran-3-yl]-3-amino-6-methylthieno[2,3-b]pyridine-2-carboxamide], the pIC50 is 5.70 to 6.70.

As for `Cc1nc2sc(C(=O)N[C@H]3CCc4nc(N5CCNCC5)ccc4C3)c(N)c2cc1F` [Example 204, 3-amino-5-fluoro-6-methyl-N-[(6S)-2-(piperazin-1-yl)-5,6,7,8-tetrahydroquinolin-6-yl]thieno[2,3-b]pyridine-2-carboxamide], the pIC50 was 5.70 to 6.70.

As to `COC[C@H]1CN(c2ccc3c(c2)CC[C@H](NC(=O)c2sc4nc(C)ccc4c2N)C3)C[C@H]1N` [Example 253, 3-amino-N-[(2S)-6-[(3S,4S)-3-amino-4-(methoxymethyl)pyrrolidin-1-yl]-1,2,3,4-tetrahydronaphthalen-2-yl]-6-methylthieno[2,3-b]pyridine-2-carboxamide], the pIC50 was 5.70 to 6.70.

Consider `CCO[C@H]1CN(c2ccc3c(n2)OC[C@H](NC(=O)c2sc4nc(C)cnc4c2N)C3)C[C@@H]1N` [Example 182, 7-amino-N-[(3R)-7-[(3S,4S)-3-amino-4-ethoxypyrrolidin-1-yl]-2H,3H,4H-pyrano[2,3-b]pyridin-3-yl]-3-methylthieno[2,3-b]pyrazine-6-carboxamide], for which the negative-log IC50 (pIC50) is < 5.70.

Take `CCO[C@@H]1CN(c2ccc3c(n2)CC[C@H](NC(=O)c2sc4nc(C)ccc4c2N)C3)C[C@@H]1N` [Example 254, 3-amino-N-[(6S)-2-[(3S,4R)-3-amino-4-ethoxypyrrolidin-1-yl]-5,6,7,8-tetrahydroquinolin-6-yl]-6-methylthieno[2,3-b]pyridine-2-carboxamide]: the pIC50 is < 5.70.

On to `CO[C@H]1CN(c2ccc3c(n2)CC[C@H](NC(=O)c2sc4nc(C)c(F)cc4c2N)C3)C[C@@H]1N` [Example 203, 3-amino-N-[(6S)-2-[(3S,4S)-3-amino-4-methoxypyrrolidin-1-yl]-5,6,7,8-tetrahydroquinolin-6-yl}-5-fluoro-6-methylthieno[2,3-b]pyridine-2-carboxamide], for which the pIC50 is < 5.70.

Take `Cc1ccc2c(N)c(C(=O)N[C@H]3COc4cc(N5C[C@H](N)C(C)(C)C5)ccc4C3)sc2n1` [Example 214, 3-amino-N-[(3R)-7-[(4R)-4-amino-3,3-dimethylpyrrolidin-1-yl]-3,4-dihydro-2H-1-benzopyran-3-yl]-6-methylthieno[2,3-b]pyridine-2-carboxamide]: the negative logarithm of the IC50 (pIC50) was 6.70 to 7.30.

For `COC[C@@H]1CN(c2cc(F)c3c(c2)OC[C@H](NC(=O)c2sc4nc(C)ccc4c2N)C3)C[C@@H]1N` [Example 250, 3-amino-N-[(3R)-7-[(3R,4R)-3-amino-4-(methoxymethyl)pyrrolidin-1-yl]-5-fluoro-3,4-dihydro-2H-1-benzopyran-3-yl]-6-methylthieno[2,3-b]pyridine-2-carboxamide], the pIC50 is 5.70 to 6.70.

Take `CO[C@H]1CN(c2ccc3c(n2)CC[C@H](NC(=O)c2sc4nc(C)ccc4c2N)C3)C[C@]1(C)N` [Example 239, 3-amino-N-[(6S)-2-[(3S,4S)-3-amino-4-methoxy-3-methylpyrrolidin-1-yl]-5,6,7,8-tetrahydroquinolin-6-yl]-6-methylthieno[2,3-b]pyridine-2-carboxamide]: the negative logarithm of the IC50 (pIC50) is < 5.70.

The record behind these values is US11524966B1 (Valo Early Discovery, Inc., priority 2017, dated 2022).
